Experimental data taken from patent US20250186456A1, “PYRIMIDINE-FUSED CYCLIC COMPOUND AND PREPARATION METHOD AND USE THEREOF” (Genfleet Therapeutics (Shanghai) Inc., priority 2021, published 2025).
Like-named read-outs stand apart in the source and are kept apart here.

What was measured:
Assay type in all cases: cell-based, human
[1] = tested on: p-ERK in AGS cells (KRAS G12D mutation); assay: Cell p-ERK assay (HTRF, Advance ERK phospho-T202/Y204 kit); conditions: AGS cells, 3 hours incubation with compound, HTRF, read-out: AGS p-ERK IC50
Summary of the method: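 AGS cells (endogenous KRAS G12D) seeded at ~20000 cells/well overnight, then treated 3 h with 3.16-fold compound dilutions, 0.1% DMSO final. Lysates assayed for phospho-T202/Y204 ERK by HTRF after 4 h antibody incubation; inhibition vs DMSO and blank, IC50 by four-parameter fit.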

[2] = tested on: AGS cells (KRAS G12D); assay: Cell proliferation inhibition assay, 3D, CellTiter-Glo 3D, AGS; conditions: AGS 3D sphere model, 5 days incubation
Summary of the method: (§1)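 Spheroids (800 AsPC-1 or 400 AGS cells/well; RPMI-1640 or F-12K with 10% FBS) formed overnight, then were dosed on day 2 with a 3.16-fold series at 0.1% DMSO. After 5 days, viability was read by CellTiter-Glo 3D luminescence, and IC50 came from four-parameter fits of inhibition versus DMSO control and medium blank.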

[3] = tested on: AsPC-1 cells (KRAS G12D mutation); assay: Cell proliferation inhibition assay, 3D, CellTiter-Glo 3D, AsPC-1; conditions: AsPC-1 3D sphere model, 5 days incubation
Summary of the method: as §1

Row | Compound | IC50 ([1]; Homo sapiens) [nM] | IC50 ([2]; Homo sapiens, 120 h) [nM] | IC50 ([3]; Homo sapiens, ASPC1, 120 h) [nM] | IC50 [1] [nM] | IC50 [2] [nM] | IC50 [3] [nM]
1 | C[C@@H]1Oc2nc(-c3cc(N)cc4ccc(F)c(F)c34)c(F)c3nc(OCC45CCCN4CC(F)(F)C5)nc(c23)N2C[C@H]3CC[C@H](N3)[C@@H]12 (stereo partly drawn) [Example Z720, 4-((5S,5aS,6S,9R)-12-((2,2-difluorotetrahydro-1H-pyrrolizin-7a (5H)-yl)methoxy)-1-fluoro-5-methyl-5a,6,7,8,9,10-hexahydro-5H-4-oxa-3,10a, 11,13,14-pentaaza-6,9-methanonaphtho[1,8-ab]heptalene-2-yl)-5,6-difluoronaphthalen-2-amine] | 35.1 | 15.7 | 33.4 | – | – | –
2 | C#Cc1c(F)ccc2cccc(-c3nc4c5c(nc(OCC6(CN7CCC(O)C7)CC6)nc5c3F)N3C[C@H]5CC[C@H](N5)[C@H]3[C@H](C)O4)c12 (stereo partly drawn) [Example Z721] | – | – | – | 37.5 | 43.6 | 105
3 | C#Cc1c(F)ccc2cc(N)cc(-c3nc4c5c(nc(OCC67CCCN6CC(F)(F)C7)nc5c3F)N3C[C@H]5CC[C@H](N5)[C@H]3[C@H](C)O4)c12 (stereo partly drawn) [Example Z722, 4-((5S,5aS,6S,9R)-12-((2,2-difluorotetrahydro-1H-pyrrolizin-7a (5H)-yl)methoxy)-1-fluoro-5-methyl-5a,6,7,8,9,10-hexahydro-5H-4-oxa-3,10a, 11,13,14-pentaaza-6,9-methanonaphtho[1,8-ab]heptalene-2-yl)-5-ethynyl-6-fluoronaphthalen-2-amine] | 7.22 | 12.8 | 9.29 | – | – | –
4 | C#Cc1c(F)ccc2cc(O)cc(-c3nc4c5c(nc(OCC67CCCN6CC(F)(F)C7)nc5c3F)N3C[C@H]5CC[C@H](N5)[C@H]3[C@H](C)O4)c12 (stereo partly drawn) [Example Z723, 4-((5S,5aS,6S,9R)-12-((2,2-difluorotetrahydro-1H-pyrrolizin-7a (5H)-yl)methoxy)-1-fluoro-5-methyl-5a,6,7,8,9,10-hexahydro-5H-4-oxa-3,10a, 11,13,14-pentaaza-6,9-methanonaphtho[1,8-ab]heptalene-2-yl)-5-ethynyl-6-fluoronaphthalen-2-ol] | 6.96 | 15.1 | 55.4 | – | – | –
5 | C#Cc1cccc2cc(N)cc(-c3nc4c5c(nc(OC[C@@H]6CC(F)(F)CN6C)nc5c3F)N3C[C@H]5CC[C@H](N5)[C@H]3[C@H](C)O4)c12 [Example Z724, 4-((5S,5aS,6S,9R)-12-(((S)-4,4-Difluoro-1-Methylpyrrolidin-2-Yl)Methoxy)-1-Fluoro-5-Methyl-5a,6,7,8,9,10-Hexahydro-5H-4-Oxa-3,10a,11,13,14-Pentaaza-6,9-Methanonaphtho[1,8-Ab]Heptalene-2-Yl)-5-Ethynylnaphthalen-2-Amine] | 45.3 | 92 | 196 | – | – | –
6 | C#Cc1cccc2c(F)c(N)cc(-c3nc4c5c(nc(OCC67CCCN6CC(F)(F)C7)nc5c3F)N3C[C@H]5CC[C@H](N5)[C@H]3[C@H](C)O4)c12 (stereo partly drawn) [Example Z725, 4-((5S,5aS,6S,9R)-12-((2,2-difluorotetrahydro-1H-pyrrolizin-7a (5H)-yl)methoxy)-1-fluoro-5-methyl-5a,6,7,8,9,10-hexahydro-5H-4-oxa-3,10a,11,13,14-pentaaza-6,9-methanonaphtho[1,8-ab]heptalen-2-yl)-5-ethynyl-1-fluoronaphthalen-2-amine] | 42.3 | 62.7 | 106 | – | – | –
7 | C#Cc1cccc2nc(N)cc(-c3nc4c5c(nc(OCC67CCCN6CC(F)(F)C7)nc5c3F)N3C[C@H]5CC[C@H](N5)[C@H]3[C@H](C)O4)c12 (stereo partly drawn) [Example Z726, 4-((5S,5aS,6S,9R)-12-((2,2-difluorotetrahydro-1H-pyrrolizin-7a (5H)-yl)methoxy)-1-fluoro-5-methyl-5a,6,7,8,9,10-hexahydro-5H-4-oxa-3,10a, 11,13,14-pentaaza-6,9-methanonaphtho[1,8-ab]heptalene-2-yl)-5-ethynylquinolin-2-amine] | 78.8 | 133 | 638 | – | – | –
8 | C#Cc1cccc2c(F)c(N)cc(-c3nc4c5c(nc(OCC67CC(=C)CN6CC(=C)C7)nc5c3F)N3C[C@H]5CC[C@H](N5)[C@H]3[C@H](C)O4)c12 [Example Z727, 4-((5S,5aS,6S,9R)-12-((2,6-dimethylenetetrahydro-1H-pyrrolizin-7a (5H)-yl)methoxy)-1-fluoro-5-methyl-5a,6,7,8,9,10-hexahydro-5H-4-oxa-3,10a, 11,13,14-pentaaza-6,9-methanonaphtho[1,8-ab]heptalene-2-yl)-5-ethynyl-1-fluoronaphthalen-2-amine] | 5.01 | 9.3 | 12.3 | – | – | –
9 | C#Cc1cccc2c(F)c(N)cc(-c3nc4c5c(nc(OCC67C[C@@H](F)CN6CCC7=C)nc5c3F)N3C[C@H]5CC[C@H](N5)[C@H]3[C@H](C)O4)c12 (stereo partly drawn) [Example Z728, 5-ethynyl-1-fluoro-4-((5S,5aS,6S,9R)-1-fluoro-12-(((6R)-6-fluoro-1-methylenetetrahydro-1H-pyrrolizin-7a (5H)-yl)methoxy)-5-methyl-5a,6,7,8,9,10-hexahydro-5H-4-oxa-3,10a, 11, 13,14-pentaaza-6,9-methanonaphtho[1,8-ab]heptalene-2-yl) naphthalen-2-amine] | 0.95 | 3.75 | 5.41 | – | – | –
10 | CCc1cccc2c(F)c(N)cc(-c3nc4c5c(nc(OCC67CCCN6CC(F)(F)C7)nc5c3F)N3C[C@H]5CC[C@H](N5)[C@H]3[C@H](C)O4)c12 (stereo partly drawn) [Example Z729, 4-((5S,5aS,6S,9R)-12-((2,2-difluorotetrahydro-1H-pyrrolizin-7a (5H)-yl)methoxy)-1-fluoro-5-methyl-5a,6,7,8,9,10-hexahydro-5H-4-oxa-3,10a, 11, 13, 14-pentaaza-6,9-methanonaphtho[1,8-ab]heptalene-2-yl)-5-ethyl-1-fluoronaphthalen-2-amine] | 212 | 584 | 757 | – | – | –
11 | C#Cc1cccc2cc(N)cc(-c3nc4c5c(nc(OCC67C[C@@H](F)CN6CCC7=C)nc5c3F)N3C[C@H]5CC[C@H](N5)[C@H]3[C@H](C)O4)c12 (stereo partly drawn) [Example Z730, 5-ethynyl-4-((5S,5aS,6S,9R)-1-fluoro-12-(((6R)-6-fluoro-1-methylenetetrahydro-1H-pyrrolizin-7a (5H)-yl)methoxy)-S-methyl-5a,6,7,8,9,10-hexahydro-5H-4-oxa-3,10a, 11, 13, 14-pentaaza-6,9-methanonaphtho[1,8-ab]heptalene-2-yl) naphthalen-2-amine] | – | – | – | 0.54 | 1.66 | 3.61
12 | C=C1CCN2C[C@H](F)CC12COc1nc2c3c(nc(-c4cc(N)c(F)c5ccc(F)c(F)c45)c(F)c3n1)O[C@@H](C)[C@@H]1[C@@H]3CC[C@H](CN21)N3 (stereo partly drawn) [Example Z731, 1,5,6-trifluoro-4-((5S, 5aS,6S,9R)-1-fluoro-12-(((6R)-6-fluoro-1-methylenetetrahydro-1H-pyrrolizin-7a (5H)-yl)methoxy)-5-methyl-5a,6,7,8,9,10-hexahydro-5H-4-oxa-3,10a, 11,13,14-pentaaza-6,9-methanonaphtho[1,8-ab]heptalene-2-yl) naphthalen-2-amine] | 1.6 | 5.7 | 15.8 | – | – | –
13 | C#Cc1cccc2cc(N)cc(-c3nc4c5c(nc(OC[C@@H]6C[C@@H](F)CN6C)nc5c3F)N3C[C@H]5CC[C@H](N5)[C@H]3[C@H](C)O4)c12 [Example Z732, 5-ethynyl-4-((5S,5aS,6S,9R)-1-fluoro-12-(((28,4R)-4-fluoro-1-methylpyrrolidin-2-yl)methoxy)-5-methyl-5a,6,7,8,9,10-hexahydro-5H-4-oxa-3,10a, 11, 13, 14-pentaaza-6,9-methanonaphtho[1,8-ab]heptalene-2-yl) naphthalen-2-amine] | – | – | – | 2.88 | 10.8 | 11.8
14 | C#Cc1cccc2cc(N)cc(-c3nc4c5c(nc(OC[C@@H]6CCCN6CC(F)F)nc5c3F)N3C[C@H]5CC[C@H](N5)[C@H]3[C@H](C)O4)c12 [Example Z733, 4-((5S,5aS,6S,9R)-12-(((S)-1-(2,2-difluoroethyl)pyrrolidin-2-yl)methoxy)-1-fluoro-5-methyl-5a,6,7,8,9,10-hexahydro-5H-4-oxa-3,10a,11,13,14-pentaaza-6,9-methanonaphtho[1,8-ab]heptalen-2-yl)-5-ethynylnaphthalen-2-amine] | 76 | 297 | 267 | – | – | –
15 | C#Cc1cccc2cc(N)cc(-c3nc4c5c(nc(OC[C@]67CCCN6CC(F)(F)C7)nc5c3F)N3C[C@H]5CC[C@H](N5)[C@H]3[C@H](C)O4)c12 [Example Z734, 4-((5S,5aS,6S,9R)-12-(((R)-2,2-difluorotetrahydro-1H-pyrrolizin-7a (5H)-yl)methoxy)-1-fluoro-5-methyl-5a,6,7,8,9,10-hexahydro-5H-4-oxa-3,10a, 11,13, 14-pentaaza-6,9-methanonaphtho[1,8-ab]heptalene-2-yl)-5-ethynylnaphthalen-2-amine] | 3.42 | 17.2 | 12.1 | – | – | –
